Data on four molecules can be found in ChEMBL document CHEMBL1145393, “Synthesis and antitumour activity of new tiazofurin analogues bearing a 2,3-anhydro functionality in the furanose ring” (Bioorg Med Chem Lett, 2007).

In assay [1] the test system is HL-60. Briefly: Cytotoxicity against human HL60 cell line after 48 hrs by MTT assay. Format: cell-based. The settings on record: HL-60, 48 h.
The test system of assay [2] is K562. Briefly: Cytotoxicity against human K562 cells after 48 hrs by MTT assay. It is filed as cell-based. The settings on record: K562, 48 h. (In general: Formazan colour is commonly taken as a measure of viable cells.)
The test system of assay [3] is Raji. Briefly: Cytotoxicity against human Raji cells after 48 hrs by MTT assay. Format: cell-based.
Assay [4] has as its system HT-29. Briefly: Cytotoxicity against human HT29 cell line after 48 hrs by MTT assay. Format: cell-based. The conditions noted are these: HT-29, 48 h.
Assay [5] concerns MCF7. Briefly: Cytotoxicity against human MCF7 cell line after 48 hrs by MTT assay. The settings on record: MCF7, 48 h. It is filed as cell-based.
Assay [6] concerns Jurkat. Briefly: Cytotoxicity against human Jurkat T cells after 48 hrs by MTT assay. It is filed as cell-based.
In assay [7] the test system is MRC5. Briefly: Cytotoxicity against human MRC5 cell line after 48 hrs by MTT assay. Format: functional, cell-based. The settings on record: MRC5, 48 h.

SMILES strings stand for the structures.

One may read the IC50 as the concentration that inhibits the measured activity by half. A high value points to a need for much substance.

In the case of `NC(=O)c1csc(C[C@@H]2O[C@H](CO)[C@H]3O[C@H]32)n1`, the IC50 is 3500 nM in assay [1]; 490 nM in assay [2]; 70 nM in assay [3]; 90 nM in assay [4]; 9090 nM in assay [5]; 2180 nM in assay [6]. Also, in assay [7], the IC50 is > 100000 nM.

Regarding `NC(=O)c1csc(C[C@H]2O[C@H](CO)[C@H]3O[C@H]32)n1`, the IC50 was > 100000 nM in assay [1]; 90 nM in assay [2]; > 100000 nM in assay [3]; 530 nM in assay [4]; 10000 nM in assay [5]; 11000 nM in assay [6]. Moreover, the IC50 in assay [7] was > 100000 nM.

In the case of `NC(=O)c1csc([C@@H]2O[C@H](CO)[C@H]3O[C@H]32)n1`, the IC50 in assay [1] was 2080 nM; in assay [2] it was 190 nM; in assay [3] it was 540 nM; in assay [4], > 100000 nM; in assay [5] it was 960 nM; in assay [6], 4840 nM. Besides, the IC50 in assay [7] was > 100000 nM.

On to `NC(=O)c1csc([C@@H]2O[C@H](CO)[C@@H](O)[C@H]2O)n1` [TIAZOFURIN], for which the IC50 in assay [1] amounted to 1840 nM; in assay [3] it was 16100 nM; in assay [4] it was 890 nM; in assay [5], 6390 nM; in assay [6], 510 nM; in assay [7], 490 nM.
